Measured values from US10383843B2, “Use of total coumarins of cnidium fruit in preparing medicaments for treating psoriasis” (priority 2013, dated 2019).

Tests used:
[1] = test system: passive cutaneous anaphylaxis (PCA) of rats; experiment: Inhibition of passive cutaneous anaphylaxis (PCA) of rats; format: in vivo; details: 15 mg/kg by gavage, 3 days
Method: Hair on the back of 40 SD rats, 180 g±10 was shaved off. 0.2 ml of a diluted rat-antiserum (1:10) was hypodermically injected into each rat through two places on the back, 0.1 ml for each place. After being injected, the rats were di vided randomly into four groups, which were administered by gavage with 75 mg/kg of total coumarins, 150 mg/kg of total coumarins, 15 mg/kg of anthralin and 15 ml/kg of distilled water for 3 days, once per day. After the injection with the rat-antiserum 48 hours, 1 ml of 0.5% evans blue, […], was intravenously injected into the rats through the caudal vein. The rats were killed in 20 minutes. A piece of skin with blue speckles was taken out from the back, and immersed in 5 ml solution of acetone/physiological saline (acetone:physiological saline=7-3 v/v) for 24 hs. After centrifugation; the supernatant was taken for measuring the optical density (OD) at 590 nm. Inhibition rate was obtained in accordance with the following equation. […] Inhibition (%)=[OD(control)−OD(drug)]×100%/OD(control)

vaginal epithelial cells = experiment: Effect on mitosis of vaginal epithelial cells in mice; format: in vivo; details: 15 mg/kg by gavage, once a day for 3 days; mitoses per 100 fundus cells
Method: 60 female NIH mice of 27 g±2 g were selected. After being intraperitoneally injected with diethylstilbesrolum for 3 days continuously, 0.2 mg/day for each animal, all the mice were left in estrum interval. From the 4th day, the mice were randomly divided into four groups, 15 mice each. The mice of the four groups were administrated for three days by gavage with 150 mg/kg of total coumarins, 75 mg/kg of total coumarins, 15 mg/kg of anthralin and 15 ml/kg of physiological saline, respectively, once one day. The last administration was carried out at 8:00 am in order to avoid the interference of various administration rhythms between day and night in the mice to the test result. At 9:00 am, 2 mg/kg of colchicine was injected to the mice to make the mitosis of vaginal epithelial cells stopped at the middle cycle of M phase.
The mice were killed at 2 pm. A sample from the vagina of the animal was taken out and fixed in a 10% formaldehyde solution. A slice of tissue was observed under an optical microscope. The number of mitosis per 300 fundus cells was counted to obtain an average number of mitosis among 100 fundus cells, which was regarded as the index of mitosis of vaginal epithelial cells.

O=C1c2c(O)cccc2Cc2cccc(O)c21 [Anthralin, anthralin]
OD ([1]; OD at 590 nm of evans blue skin extract): 0.043 ± 0.25
inhibition at 15 mg/kg ([1]; Rattus norvegicus, po, 72 h): 51.7%
Index of Mitosis % (vaginal epithelial cells): 13.4 ± 2.1 %
